Test results published in patent US9976141B2, “Compositions and methods for inhibiting gene expression of Hif2alpha” (Arrowhead Madison Inc., priority 2015, dated 2018).

Tested on: human (tumor) Hif2α (EPAS1) mRNA
Assay: Hif2α knockdown in orthotopic RCC tumor bearing mice, single injection of RNAi trigger-delivery polymer conjugate, RT-qPCR (Table 7)
Format: in vivo
Details: RNAi trigger 50 μg, polymer 064 125 μg; single tail vein injection; relative to isotonic glucose
How it was run: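 Female athymic nude mice carried orthotopic A498-SEAP ccRCC kidney tumours, used 5–6 weeks after implantation. They received one tail-vein injection of RGD-targeted Hif2α RNAi trigger–polymer conjugate or isotonic glucose. Tumour Hif2α mRNA was measured by TaqMan RT-qPCR normalised to CycA (ΔΔCT) and expressed relative to glucose-treated mice.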

| Substance | Relative Expression day 4 (Hif2α mRNA in kidney tumor) |
| --- | --- |
| AD02949 (antisense UUUCAUGAAAUCGUUACGUUG; sense ACGUAACGAUUUCAUGAAAT; Hif2alpha RNAi agent antisense strand; modified_base 2,4,6,8,10,14,16,18 /mod_base = “2′-deoxy-2′-fluoro corresponding nucleoside”; modified_base 1,3,5,7,9,11,12,13,15,17,19,20,21 /mod_base = “2′-O-methyl corresponding nucleoside”; modified_base 2,3,20,21 /mod_base = “5′-phosphorothioate corresponding nucleotide”; Hif2alpha RNAi agent sense strand; modified_base 7,9,13 /mod_base = “2′-deoxy-2′-fluoro corresponding nucleoside”; modified_base 1,2,3,4,5,6,8,10,11,12,14,15,16,17,18,19 /mod_base = “2′-O-methyl corresponding nucleoside”; modified_base 20 /mod_base = “3′-3′-linked nucleotide”; modi) | 0.176 |
| AD03011 (antisense UUUCAUGAAAUCGUUACGUUG; sense UAUACGUAACGAUUUCAUGAAAT; Hif2alpha RNAi agent antisense strand; modified_base 2,4,6,8,10,14,16,18 /mod_base = “2′-deoxy-2′-fluoro corresponding nucleoside”; modified_base 1,3,5,7,9,11,12,13,15,17,19,20,21 /mod_base = “2′-O-methyl corresponding nucleoside”; modified_base 2,3,20,21 /mod_base = “5′-phosphorothioate corresponding nucleotide”; Hif2alpha RNAi agent sense strand; modified_base 2 modified base = “2′-hydroxy corresponding nucleoside”; modified_base 10,12,16 /mod_base = “2′-deoxy-2′-fluoro corresponding nucleoside”; modified_base 1,3,4,5,6,7,8,9,11,13,14,15,17,18,19,20,21,22 /mod_base = “2′-O-methyl correspon) | 0.183 |
| AD03187 (antisense UGUAAAACAAUUGUGUACUUU; sense AGUACACAAUUGUUUUACAT; Hif2alpha RNAi agent antisense strand; modified_base 2,4,6,8,10,14,16,18 /mod_base = “2′-deoxy-2′-fluoro corresponding nucleoside”; modified_base 1,3,5,7,9,11,12,13,15,17,19,20,21 /mod_base = “2′-O-methyl corresponding nucleoside”; modified_base 2,3,20,21 /mod_base = “5′-phosphorothioate corresponding nucleotide”; Hif2alpha RNAi agent sense strand; modified_base 3,5,7,8,9,11,13,17 /mod_base = “2′-deoxy-2′-fluoro corresponding nucleoside”; modified_base 1,2,4,6,10,12,14,15,16,18,19 /mod_base = “2′-O-methyl corresponding nucleoside”; modified_base 20 /mod_base = “3′-3′-linked nucleotide”; modi) | 1.000 |
| AD03188 (antisense AGUAAAACAAUUGUGUACUUU; sense AGUACACAAUUGUUUUACUT; Hif2alpha RNAi agent antisense strand; modified_base 2,4,6,8,10,14,16,18 /mod_base = “2′-deoxy-2′-fluoro corresponding nucleoside”; modified_base 1,3,5,7,9,11,12,13,15,17,19,20,21 /mod_base = “2′-O-methyl corresponding nucleoside”; modified_base 2,3,20,21 /mod_base = “5′-phosphorothioate corresponding nucleotide”; Hif2alpha RNAi agent sense strand; modified_base 3,5,7,8,9,11,13,17 /mod_base = “2′-deoxy-2′-fluoro corresponding nucleoside”; modified_base 1,2,4,6,10,12,14,15,16,18,19 /mod_base = “2′-O-methyl corresponding nucleoside”; modified_base 20 /mod_base = “3′-3′-linked nucleotide”; modi) | 0.308 |
| AD03189 (antisense UGUAAAACAAUUGUGUACUUUAA; sense AAAGUACACAAUUGUUUUACA; Hif2alpha RNAi agent antisense strand; modified_base 2,4,6,8,10,14,16,18 /mod_base = “2′-deoxy-2′-fluoro corresponding nucleoside”; modified_base 1,3,5,7,9,11,12,13,15,17,19,20,21,22,23 /mod_base = “2′-O-methyl corresponding nucleoside”; modified_base 2,3,22,23 /mod_base = “5′-phosphorothioate corresponding nucleotide”; Hif2alpha RNAi agent sense strand; modified_base 3,5,7,9,10,11,13,15,19 /mod_base = “2′-deoxy-2′-fluoro corresponding nucleoside”; modified_base 1,2,4,6,8,12,14,16,17,18,20 /mod_base = “2′-O-methyl corresponding nucleoside”; modified_base 21 /mod_base = “3′-3′-linked nucleoti) | 0.245 |
| AD03190 (antisense AGUAAAACAAUUGUGUACUUUAA; sense AAAGUACACAAUUGUUUUACT; Hif2alpha RNAi agent antisense strand; modified_base 2,4,6,8,10,14,16,18 /mod_base = “2′-deoxy-2′-fluoro corresponding nucleoside”; modified_base 1,3,5,7,9,11,12,13,15,17,19,20,21,22,23 /mod_base = “2′-O-methyl corresponding nucleoside”; modified_base 2,3,22,23 /mod_base = “5′-phosphorothioate corresponding nucleotide”; Hif2alpha RNAi agent sense strand; modified_base 3,5,7,9,10,11,13,15,19 /mod_base = “2′-deoxy-2′-fluoro corresponding nucleoside”; modified_base 1,2,4,6,8,12,14,16,17,18,20 /mod_base = “2′-O-methyl corresponding nucleoside”; modified_base 21 /mod_base = “3′-3′-linked nucleoti) | 0.269 |
| AD03191 (antisense AGUAAAACAAUUGUGUACUUUAA; sense AAAGUACACAAUUGUUUUACT; Hif2alpha RNAi agent antisense strand; modified_base 2,4,6,8,10,14,16,18 /mod_base = “2′-deoxy-2′-fluoro corresponding nucleoside”; modified_base 1,3,5,7,9,11,12,13,15,17,19,20,21,22,23 /mod_base = “2′-O-methyl corresponding nucleoside”; modified_base 2,3,22,23 /mod_base = “5′-phosphorothioate corresponding nucleotide”; Hif2alpha RNAi agent sense strand; modified_base 7,9,10,11 /mod_base = “2′-deoxy-2′-fluoro corresponding nucleoside”; modified_base 1,2,3,4,5,6,8,12,13,14,15,16,17,18,19,20 /mod_base = “2′-O-methyl corresponding nucleoside”; modified_base 21 /mod_base = “3′-3′-linked nucleoti) | 0.307 |
| AD03192 (antisense AGUAAAACAAUUGUGUACUUUAA; sense AAAGUACACAAUUGUUUUACT; Hif2alpha RNAi agent antisense strand; modified_base 2,4,6,8,10,14,18 /mod_base = “2′-deoxy-2′-fluoro corresponding nucleoside”; modified_base 1,3,5,7,9,11,12,13,15,16,17,19,20,21,22,23 /mod_base = “2′-O-methyl corresponding nucleoside”; modified_base 2,3,22,23 /mod_base = “5′-phosphorothioate corresponding nucleotide”; Hif2alpha RNAi agent sense strand; modified_base 5,7,9,10,11,13,15 /mod_base = “2′-deoxy-2′-fluoro corresponding nucleoside”; modified_base 1,2,3,4,6,8,12,14,16,17,18,19,20 /mod_base = “2′-O-methyl corresponding nucleoside”; modified_base 21 /mod_base = “3′-3′-linked nucleoti) | 0.286 |
| AD03193 (antisense AGUAAAACAAUUGUGUACUUUAA; sense AAAGUACACAAUUGUUUUACT; Hif2alpha RNAi agent antisense strand; modified_base 2,4,6,8,14 /mod_base = “2′-deoxy-2′-fluoro corresponding nucleoside”; modified_base 1,3,5,7,9,10,11,12,13,15,16,17,18,19,20,21,22,23 /mod_base = “2′-O-methyl corresponding nucleoside”; modified_base 2,3,22,23 /mod_base = “5′-phosphorothioate corresponding nucleotide”; Hif2alpha RNAi agent sense strand; modified_base 9,10,11 /mod_base = “2′-deoxy-2′-fluoro corresponding nucleoside”; modified_base 1,2,3,4,5,6,7,8,12,13,14,15,16,17,18,19,20 /mod_base = “2′-O-methyl corresponding nucleoside”; modified_base 21 /mod_base = “3′-3′-linked nucleoti) | 0.275 |
